In ChEMBL document CHEMBL3407450, “Design of new hybrid template by linking quinoline, triazole and dihydroquinoline pharmacophoric groups: A greener approach to novel polyazaheterocycles as cytotoxic agents” (Bioorg Med Chem Lett, 2015):

Tests used:
DU-145 = experiment: Cytotoxicity against human DU145 cells assessed as cell viability after 48 hrs by MTT assay; type: functional, cell-based; conditions: DU-145, 48 h
HepG2 = experiment: Cytotoxicity against human HepG2 cells assessed as cell viability after 48 hrs by MTT assay; type: functional, cell-based; conditions: HepG2, 48 h
A549 = experiment: Cytotoxicity against human A549 cells assessed as cell viability after 48 hrs by MTT assay; type: functional, cell-based; conditions: A549, 48 h
MCF7 = experiment: Cytotoxicity against human MCF7 cells assessed as cell viability after 48 hrs by MTT assay; type: functional, cell-based; conditions: MCF7, 48 h
[1] = target: 3',5'-cyclic-AMP phosphodiesterase 4D (Homo sapiens) (UniProt Q08499); experiment: Inhibition of PDE4D (unknown origin) transfected into Sf9 cells at 30 uM by PDElight HTS cAMP phosphodiesterase assay
Chain of 3',5'-cyclic-AMP phosphodiesterase 4D (Homo sapiens) (Q08499 whole entry): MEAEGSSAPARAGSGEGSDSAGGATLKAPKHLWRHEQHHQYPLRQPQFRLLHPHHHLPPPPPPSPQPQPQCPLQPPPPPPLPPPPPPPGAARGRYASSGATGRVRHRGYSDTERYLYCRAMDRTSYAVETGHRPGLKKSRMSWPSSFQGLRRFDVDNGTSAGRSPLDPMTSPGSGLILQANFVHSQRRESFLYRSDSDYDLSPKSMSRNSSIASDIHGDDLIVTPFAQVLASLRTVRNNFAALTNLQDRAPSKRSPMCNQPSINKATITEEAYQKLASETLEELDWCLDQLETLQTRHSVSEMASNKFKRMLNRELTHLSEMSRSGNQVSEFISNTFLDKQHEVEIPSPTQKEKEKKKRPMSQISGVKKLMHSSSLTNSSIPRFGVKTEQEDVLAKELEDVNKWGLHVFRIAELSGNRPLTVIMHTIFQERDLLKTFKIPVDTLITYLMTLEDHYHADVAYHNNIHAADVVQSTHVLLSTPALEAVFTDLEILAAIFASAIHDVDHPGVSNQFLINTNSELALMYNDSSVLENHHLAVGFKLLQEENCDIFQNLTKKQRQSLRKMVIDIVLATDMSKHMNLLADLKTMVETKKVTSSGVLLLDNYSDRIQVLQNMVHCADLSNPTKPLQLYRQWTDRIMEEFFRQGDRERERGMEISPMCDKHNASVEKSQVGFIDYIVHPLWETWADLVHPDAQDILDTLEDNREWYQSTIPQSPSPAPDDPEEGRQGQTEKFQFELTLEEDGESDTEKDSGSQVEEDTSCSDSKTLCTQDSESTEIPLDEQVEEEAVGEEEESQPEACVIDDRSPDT

[2] = target: 3',5'-cyclic-AMP phosphodiesterase 4B (Homo sapiens) (UniProt Q07343); experiment: Inhibition of PDE4B (unknown origin) transfected into Sf9 cells at 30 uM by PDElight HTS cAMP phosphodiesterase assay
Chain of 3',5'-cyclic-AMP phosphodiesterase 4B (Homo sapiens) (Q07343 whole entry): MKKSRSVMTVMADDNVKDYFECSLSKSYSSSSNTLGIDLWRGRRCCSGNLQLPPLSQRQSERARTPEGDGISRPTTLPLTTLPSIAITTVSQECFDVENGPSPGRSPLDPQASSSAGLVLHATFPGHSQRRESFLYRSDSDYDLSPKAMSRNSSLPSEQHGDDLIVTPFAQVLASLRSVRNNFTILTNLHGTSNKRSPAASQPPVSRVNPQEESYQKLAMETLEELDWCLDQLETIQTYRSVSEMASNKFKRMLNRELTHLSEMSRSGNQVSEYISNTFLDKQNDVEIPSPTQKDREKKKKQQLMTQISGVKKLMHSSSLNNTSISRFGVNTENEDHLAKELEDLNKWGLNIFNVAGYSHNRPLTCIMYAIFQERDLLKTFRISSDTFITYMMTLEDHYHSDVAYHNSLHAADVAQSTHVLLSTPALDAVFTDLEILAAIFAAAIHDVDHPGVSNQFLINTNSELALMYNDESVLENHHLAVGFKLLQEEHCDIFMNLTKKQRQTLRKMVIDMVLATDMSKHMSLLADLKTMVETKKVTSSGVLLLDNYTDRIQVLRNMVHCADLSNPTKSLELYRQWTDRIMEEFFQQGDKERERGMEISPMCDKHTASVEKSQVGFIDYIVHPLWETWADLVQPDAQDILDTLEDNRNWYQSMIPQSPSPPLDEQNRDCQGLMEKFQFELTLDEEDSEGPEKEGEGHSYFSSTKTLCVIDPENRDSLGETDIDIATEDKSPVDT

inhibition [1] [%] | inhibition [2] [%] | Compound | IC50 (DU-145) [µM] | IC50 (HepG2) [µM] | IC50 (A549) [µM] | IC50 (MCF7) [µM]
 |  | CC1=CC(C)(C)N(Cc2cn(Cc3cc4cc(C)ccc4nc3Cl)nn2)c2ccccc21 | 31.3 | 23 | 29.4 | 30.6
52 | 88 | COc1ccc2nc(Cl)c(Cn3cc(CN4c5ccc(C)cc5C(C)=CC4(C)C)nn3)cc2c1 | 19.8 | 21.6 | 15.5 | 14.3
 |  | COc1ccc2nc(Cl)c(Cn3cc(CN4c5ccccc5C(C)=CC4(C)C)nn3)cc2c1 | 34 | 41.2 | 33.4 | 38.7
 |  | COc1ccc2c(c1)C(C)=CC(C)(C)N2Cc1cn(Cc2cc3cc(OC)ccc3nc2Cl)nn1 | 28.6 | 27.2 | 30.9 | 26.4
 |  | CC1=CC(C)(C)N(Cc2cn(Cc3cc4ccc(C)cc4nc3Cl)nn2)c2ccccc21 | 27 | 26.2 | 11.1 | 10.8
 |  | CC1=CC(C)(C)N(Cc2cn(Cc3cc4ccccc4nc3Cl)nn2)c2ccccc21 | 19.3 | 13.1 | 17.5 | 16.2
 |  | COc1cccc2c1C(=O)c1c(O)c3c(c(O)c1C2=O)C[C@@](O)(C(=O)CO)C[C@@H]3O[C@H]1C[C@H](N)[C@H](O)[C@H](C)O1 [DOXORUBICIN] | 0.5 | 3.5 | 9.7 | 0.8
